Measurements from patent US20240425473A2 (priority 2021, published 2024).
Read-outs that look alike come from different tables or passages of the source.

Tests used:
[1] = test system: IFN-β promoter activity; type: cell-based, human; details: for effect on IFN induction, compared with AE-1-10: 293T cells with SeV infection; for IFN induction: Sendai virus
[2] = test system: SARS-CoV-2; type: cell-based
[3] = test system: SARS-CoV-2; type: cell-based; remark: listed apart in the source
[4] = test system: SARS-CoV-2; design: species or system mice; details: mouse, in vivo, ip, 35 mg/kg
[5] = test system: IRF3 deamidation; test: IRF3 deamidation by two-dimensional gel electrophoresis and immunoblotting; type: cell-based, human; details: Caco-2 cells expressing ORF8 or A549 cells expressing Nsp8; 5 μM
[6] = test system: IFNB1 expression; type: cell-based, human; details: 293T cells pre-treated 2 h, Sendai virus infection 9 h
[7] = test system: NF-κB promoter activity; type: cell-based, human; details: 293T cells
[8] = test system: CTP synthesis; type: cell-based, human
[9] = test system: antiviral genes IFNB1, ISG56, CCL5 and Mx1; type: cell-based, human
[10] = target: T1, CTPS1 (Homo sapiens, UniProt P17812); test: Click-based cross-linking, affinity purification and mass spectrometry to identify cellular targets; type: binding; design: endogenous in cells; details: ranked lower than several other proteins; data not shown
T1 sequence (P17812 1-591): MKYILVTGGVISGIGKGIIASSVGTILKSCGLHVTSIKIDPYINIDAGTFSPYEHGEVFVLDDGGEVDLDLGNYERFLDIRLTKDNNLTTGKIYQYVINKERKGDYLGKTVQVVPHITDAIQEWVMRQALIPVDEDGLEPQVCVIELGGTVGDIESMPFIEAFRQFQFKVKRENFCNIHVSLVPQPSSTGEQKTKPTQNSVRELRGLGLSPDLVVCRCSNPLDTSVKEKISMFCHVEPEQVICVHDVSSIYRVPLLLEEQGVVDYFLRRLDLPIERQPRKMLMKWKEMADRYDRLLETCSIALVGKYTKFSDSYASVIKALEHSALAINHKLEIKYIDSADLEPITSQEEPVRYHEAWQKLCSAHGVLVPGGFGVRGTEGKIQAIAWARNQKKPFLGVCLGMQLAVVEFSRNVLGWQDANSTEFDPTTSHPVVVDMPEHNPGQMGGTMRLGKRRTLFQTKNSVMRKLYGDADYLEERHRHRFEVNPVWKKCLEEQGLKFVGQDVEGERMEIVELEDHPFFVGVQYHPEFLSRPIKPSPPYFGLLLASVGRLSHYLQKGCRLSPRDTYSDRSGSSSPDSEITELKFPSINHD

[11] = target: T1, CTPS1; type: binding; design: Flag; expressed in transfected cells; host or cells: 293T cells expressing Flag-CTPS1; details: 293T cells expressing Flag-CTPS1
[12] = target: T1, CTPS1; type: biochemical; design: made in house; details: with respect to UTP, 2 mM ATP, 2 mM L-glutamine, 0.1 mM GTP, Michaelis-Menten

Compound: CCCCCNC(=O)c1cccc(NC(=O)CCl)c1 [C9]
- effect on IFN induction, compared with AE-1-10 [1]: improved effect to increase IFN induction
- reduction of viral RNA abundance compared to the vehicle (DMSO) [2]: ~2 order of magnitude
- antiviral activity in SARS-CoV-2 infection, compared to AE-1-10 [3]: more robust antiviral activity
- reduction of SARS-CoV-2 titer [3]: ~3 order of magnitude
- protection against SARS-CoV-2 infection [4]: protect against infection

Compound: COc1cccc(N(C)C(=O)c2cccc(NC(=O)CCl)c2)c1 [C2]
- effect on IFN induction, compared with AE-1-10 [1]: no effect

Compound: O=C(CCl)Nc1cccc(C(=O)NC2CCCCC2)c1 [C1]
- effect on IFN induction, compared with AE-1-10 [1]: no effect

Compound: CCc1ccccc1NC(=O)c1cccc(NC(=O)CCl)c1 [B8]
- reduction of viral RNA abundance relative to C9 [2]: significant improvement compared to C9
- effect on viral titer [3]: better effect than C9

Compound: COc1cccc(NC(=O)c2cccc(NC(=O)CCl)c2)c1 [AE-1-10]
- inhibition of IRF3 deamidation [5]: best efficacy to inhibit IRF3 deamidation
- IFNB1 expression [6]: increased IFNB1 expression in a dose-dependent manner
- IFN induction ([1]; CTPS1-depleted 293T cells): failed to do so
- IFN induction ([1]; control 293T cells): elevated IFN induction
- NF-κB activation [7]: no effect
- [15N]CTP and [15N]CDP [8]: reduced [^15N]CTP and, much more so [^15N]CDP in a dose-dependent manner
- intracellular concentration of [15N]CTP and [15N]CDP [8]: reduced the intracellular concentration of [^15N]CTP and [^15N]CDP
- antiviral gene expression [9]: elevated antiviral gene expression
- expression of antiviral genes (IFNB1, ISG56, CCL5, Mx1) [9]: elevated
- viral RNA [2]: reduced viral RNA
- viral yield [3]: reduced viral RNA and yield

Compound: CCCCCNC(=O)c1ccc(NC(=O)CCl)s1 [B1]
- reduction of viral RNA abundance compared to the vehicle (DMSO) [2]: ~5 order of magnitude
- effect on viral titer [3]: reduced viral titer to the limit of detection

Compound: C#CCOc1cccc(Nc2ncnc3ccc(NC(=O)CCl)cc23)c1 [Q6ca]
- cellular target identification [10]: identification of CTPS1 as a cellular target

Compound: C#CCOc1cccc(NC(=O)c2cccc([N+](=O)[O-])c2)c1 [BE-2-10]
- reaction (labeling) with CTPS1 [11]: reacted with CTPS1 in a dose-dependent manner

Compound: O=C(Nc1ccccc1)c1ccc([N+](=O)[O-])s1 [C7]
- effect on IFN induction, compared with AE-1-10 [1]: modest effect

Compound: ORF7b: SARS-CoV-2 polypeptide transiently expressed in the 293T cells from which CTPS1 was purified
- Kcat [12]: 0.0147 ± 0.006 s⁻¹
- Km [12]: 30.5 ± 21.5 mM

Compound: COc1ccccc1NC(=O)c1cccc(NC(=O)CCl)c1 [C5]
- effect on IFN induction, compared with AE-1-10 [1]: improved effect to increase IFN induction
- antiviral activity in SARS-CoV-2 infection, compared to AE-1-10 [3]: more robust antiviral activity

Compound: ORF8: SARS-CoV-2 polypeptide transiently expressed in the 293T cells from which CTPS1 was purified
- Kcat [12]: 0.0212 ± 0.0137 s⁻¹
- Km [12]: 55.2 ± 50.3 mM

Compound: O=C(CCl)Nc1cccc(C(=O)Nc2ncc[nH]2)c1 [C6]
- effect on IFN induction, compared with AE-1-10 [1]: modest effect

Compound: O=C(CCl)Nc1cccc(C(=O)NC2CCCC2)c1 [B4]
- reduction of viral RNA abundance relative to C9 [2]: significant improvement compared to C9

Compound: Cc1ccccc1NC(=O)c1cccc(NC(=O)CCl)c1 [B5]
- reduction of viral RNA abundance relative to C9 [2]: significant improvement compared to C9
- effect on viral titer [3]: better effect than C9

Compound: [N-]=[N+]=CC(=O)CC[C@H](N)C(=O)O [DON, 6-diazo-5-oxo-L-norleucine, reference compound]
- Sendai virus-induced IFN-β gene expression ([1]; CTPS1 depleted and control 293T cells): elevated

Compound: COc1ccc(NC(=O)c2cccc(NC(=O)CCl)c2)cc1 [C4]
- effect on IFN induction, compared with AE-1-10 [1]: improved effect to increase IFN induction

Compound: COc1cccc(NC(=O)c2cc(NC(=O)CCl)cs2)c1 [B7]
- reduction of viral RNA abundance compared to the vehicle (DMSO) [2]: ~5 order of magnitude
- effect on viral titer [3]: reduced viral titer to the limit of detection

Compound: COc1ccccc1NC(=O)c1cc(NC(=O)CCl)cs1 [B2]
- reduction of viral RNA abundance compared to the vehicle (DMSO) [2]: ~5 order of magnitude
- effect on viral titer [3]: reduced viral titer to the limit of detection

Compound: O=C(CCl)Nc1csc(C(=O)Nc2ccccc2)c1 [C8]
- effect on IFN induction, compared with AE-1-10 [1]: improved effect to increase IFN induction
